Laboratory results reported in patent US20160067277A1, “USE OF XENON FOR LIMITING TUMOR CELL MIGRATION” (L'Air Liquide, Societe Anonyme pour I'Etude et …, priority 2013, published 2016).

Experiments:
Type in all cases: cell-based, human
MCF7 cells [1] = test: MTT cell survival test; settings: 1 h, 3 h, 5 h exposure to 70% xenon, MTT after 24 hours
Experimental: (§1) ER− and ER+ cancer cells (Estrogen Receptor) of a human adenocarcinoma (breast cancer), namely lines of MDA-MB-231 and MCF7 cells, were deposited on plates coated with collagen, where they adhered. These cell lines are available commercially.
(§2) The plates with the adhering cells were then placed in a sealed chamber, saturated, for 1 h, 3 h and 5 h, with: • either a control atmosphere (control), namely a gas mixture formed from 25% O2, 5% CO2 and 70% N2 (vol %); • or a test atmosphere based on xenon according to the invention, namely a gas mixture formed from 25% O2, 5% CO2 and 70% xenon (vol %).
(§3) Cell survival was determined after 24 hours, using an MTT (for methylthaizolyldiphenyl-tetrazolium bromide) test. This test is a conventional test for determining cellular viability. It is based on detection of living cells only, via the activity of their mitochondrial dehydrogenases, which makes it possible to evaluate cytotoxicity, proliferation and/or cellular activation.

MDA-MB-231 cells [2] = test: MTT cell survival test; settings: 1 h, 3 h, 5 h exposure to 70% xenon, MTT after 24 hours
Experimental: as §1, §2, §3

MCF7 cells [3] = test: Oris cell migration test, fluorescence-labeled cells (RFU); settings: for % cell migration relative to the control: MCF7 (ER+) cells, migration at 24 h, control atmosphere = 100%
Experimental: as §1, §2
(§4) For its part, cell migration at 24 h was determined after 24 hours, using fluorescence-labeled cells in the context of an Oris™ cell migration test. In this test, the labeled cells migrate into a target zone, where they are then quantified by a fluorescent plate reader for measuring the relative fluorescent units (RFU)).
(§5) More precisely, as already noted, several tests (3 or 4 tests) were conducted with the different gas atmospheres for different exposure times, and the results were expressed in the form of relative fluorescent units (RFU).
(§6) The migration of the cancer cells exposed to the atmosphere containing xenon was calculated as a percentage (%) relative to that of the cells exposed to the control atmosphere, i.e. exposed to an atmosphere without xenon (RFU fixed at 100%), and in the same conditions.
(§7) A two-way t-test for statistical analysis of the difference between the cell lines and the probability values P below 0.05 were considered significant.

MDA-MB-231 cells [4] = test: as above; settings: for % cell migration relative to the control: MDA-MB-231 (ER-) cells, migration at 24 h, control atmosphere = 100%
Experimental: as §1, §2, §4, §5, §6, §7

[5] = 1 h exposure to 25% O2, 5% CO2, 70% xenon
[6] = 3 h exposure to 25% O2, 5% CO2, 70% xenon
[7] = 5 h exposure to 25% O2, 5% CO2, 70% xenon

With `[Xe]` [xenon] the “effect on cell survival” value (MCF7 cells [1]) was “does not have a significant effect on cell survival”, the “effect on cell survival” value (MDA-MB-231 cells [2]) was “does not have a significant effect on cell survival” and the “effect on cell migration (in words)” value (MCF7 cells [3]; ER+ MCF7 cells, starting from 1 hour of exposure, FIG. 2) was “significantly reduces the migration”. For the same compound, the “% cell migration relative to the control” value (MCF7 cells [3]; [5]) was 58 ± 12%, the “% cell migration relative to the control” value (MCF7 cells [3]; [6]) was 65 ± 12% and the “% cell migration relative to the control” value (MCF7 cells [3]; [7]) was 65 ± 12%. The “effect on cell migration (in words)” value (MDA-MB-231 cells [4]; ER- MDA-MB-231 cells, starting from 1 hour of exposure, FIG. 1) was “significantly reduces the migration”, the “% cell migration relative to the control” value (MDA-MB-231 cells [4]; [5]) was 59 ± 13% and the “% cell migration relative to the control” value (MDA-MB-231 cells [4]; [6]) was 64 ± 10%. For the same compound, the “% cell migration relative to the control” value (MDA-MB-231 cells [4]; [7]) was 71 ± 9%.
